Where two headings read alike, the source gives them in different places.
Columns and labels:
Igrov1 cells = test: In vitro cell killing (cell proliferation assay, Cell Titer-Glo) on FolRα positive Igrov1 cells; format: cell-based; details: for cell killing (in words): Igrov1 cells (FolRα positive)
Excerpt: (§1) Anti-FolRα antibody conjugated to hemiasterlin with a cathepsin cleavable ValCit linker was used as control. FolRα negative A549 and MC38 cells were purchased from ATCC (American Type Culture Collection, Manassas, VA, USA), and FolRα positive Igrov1 cells were licensed from NCI (National Cancer Institute at Frederick, Maryland). MC38-hFolRα cells were generated at Sutro by stable transfection of a vector expressing human FolRa. All the cell lines were maintained in DMEM:F12 (1:1), high glucose (Corning, Corning, NY) supplemented with 10% heat-inactivated fetal bovine serum (Thermo Scientific, Grand Island, NY), 2 mM glutamax (Thermo Scientific, Grand Island, NY), and 1× Penicillin/Streptomycin (Corning, Corning, NY). Cytotoxicity effects of the ADCs were measured with a cell proliferation assay. A total of 625 cells for Igrov1 and A549, and 312 cells for MC38-hFolRα in a volume of 25 microliters were seeded in a 384-well flat bottom white polystyrene plate the day before the actual assay starts. ADCs were formulated at 2× starting concentration in cell culture medium and filtered through MultiScreen HTS 96-Well Filter Plates (Millipore, Billerica, Massachusetts). Filter sterilized samples were serial diluted (1:3) under sterile conditions and added onto cells in triplicate. Plates were cultured at 37° C. in a CO2 incubator for 120 hours for Igrov1 and A549, and 72 hours for MC38-hFolRα cells. For cell viability measurement, 30 microliters of Cell Titer-Glo® reagent (Promega Corp, Madison, WI) was added into each well, and plates were processed as per product instructions. Relative luminescence was measured on an ENVISION® plate reader (Perkin-Elmer; Waltham, MA). Relative luminescence readings were converted to % viability using untreated cells as controls. Data was fitted with non-linear regression analysis using log (inhibitor) vs. response, variable slope, and 4-parameter fit equation using GraphPad Prism.

MC38-hFolRα cells = test: In vitro cell killing (cell proliferation assay, Cell Titer-Glo) on MC38-hFolRα cells; format: cell-based; details: for cell killing (in words): MC38-hFolRα cells (FolRα positive)
Excerpt: as §1

A549 cells = test: In vitro cell killing (cell proliferation assay, Cell Titer-Glo) on FolRα negative A549 cells; format: cell-based; details: for cell killing (in words): A549 cells (hFolRα negative)
Excerpt: as §1

E. coli β-Glucuronidase = E. coli β-Glucuronidase (Escherichia coli, UniProt P05804); test: β-Glucuronidase reactivity: enzymatic cleavage of linker-payloads monitored by LCMS; format: in vitro ADME; details: 10 μM linker-payload, 300 U/mL enzyme, 50 mM sodium acetate, 37° C., release of (207) from (107), (201) from (108)
Procedure: The susceptibility of the β-glucuronide linker-payloads to enzymatic cleavage was evaluated by treatment of the (107) and (108) linker-payloads with β-glucuronidase, as shown in FIG. 3A-FIG. 3D. This assay allowed the confirmation of the expected release of Exatecan (207) and 3-amino hemiasterlin (201). The cleavage product was monitored using LCMS. 945 μL of 50 mM sodium acetate, 5 μL of 2 mM (107)/(108) linker-payloads stock (final conc.10 μM) and 50 μL of 6 KU/mL E. coli β-Glucuronidase in 0.2% NaCl (final conc.300 U/mL) were mixed and incubated at 37° C. Aliquots (50 μL) were taken at t=0 h, 0.5 h, 1 h, 2 h, 4 h and 24 h, treated with 3 volumes of quench solution (methanol:acetonitrile 5:95 v/v) and analyzed by LCMS.

Chain of E. coli β-Glucuronidase (P05804 whole entry): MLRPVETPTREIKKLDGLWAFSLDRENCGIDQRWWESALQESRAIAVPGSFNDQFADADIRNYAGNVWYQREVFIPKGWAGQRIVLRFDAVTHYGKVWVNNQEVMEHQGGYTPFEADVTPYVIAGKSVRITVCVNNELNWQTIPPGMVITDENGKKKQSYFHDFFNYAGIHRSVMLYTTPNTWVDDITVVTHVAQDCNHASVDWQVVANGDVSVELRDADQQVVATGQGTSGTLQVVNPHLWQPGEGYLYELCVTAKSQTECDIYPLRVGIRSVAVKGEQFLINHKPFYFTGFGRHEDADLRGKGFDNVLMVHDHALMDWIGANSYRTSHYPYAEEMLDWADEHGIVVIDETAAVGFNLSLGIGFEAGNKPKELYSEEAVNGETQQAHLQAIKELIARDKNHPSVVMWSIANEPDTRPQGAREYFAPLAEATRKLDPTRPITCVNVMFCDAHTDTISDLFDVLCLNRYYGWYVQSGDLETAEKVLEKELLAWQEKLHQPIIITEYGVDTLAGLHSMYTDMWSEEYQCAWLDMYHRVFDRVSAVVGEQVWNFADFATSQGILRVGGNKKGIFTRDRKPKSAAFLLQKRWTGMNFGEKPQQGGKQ

Compound	EC50 (Igrov1 cells; Homo sapiens, IGROV-1, 120 h) [nM]	cell killing (in words) (Igrov1 cells)	Span (Igrov1 cells; Igrov1 cells, 120 hours) [%]	potency relative to free Hemiasterlin (201) (Igrov1 cells; free payloads, statement for the three cell lines tested (Igrov1, MC38-hFolRα, A549))	EC50 (MC38-hFolRα cells; 72 h) [nM]	Span (MC38-hFolRα cells; MC38-FolRa cells, 72 hours) [%]	cell killing (in words) (MC38-hFolRα cells)	cell killing (in words) (A549 cells)	Span (A549 cells; A549 cells, 120 hours) [%]	EC50 (A549 cells; Homo sapiens, A549, 120 h) [nM]	EC50 (Igrov1 cells; Igrov1 cells, 120 hours, read-out: EC50) [nM]	EC50 (MC38-hFolRα cells; MC38-FolRa cells, 72 hours, read-out: EC50) [nM]	EC50 (A549 cells; A549 cells, 120 hours, read-out: EC50) [nM]	linker-payload after 30 min with β-glucuronidase (in words) (E. coli β-Glucuronidase)
CC[C@@]1(O)C(=O)OCc2c1cc1n(c2=O)Cc2c-1nc1cc(F)c(C)c3c1c2[C@@H](N)CC3 [Compound 207, Exatecan]	0.27	good cell killing	91	about 3 fold	2.3	95	good cell killing	good cell killing	99	3.4	–	–	–	–
3-amino hemiasterlin [Compound 201]	–	good cell killing	88	–	–	82	good cell killing	good cell killing	83	–	0.96	5.5	13	–
CC[C@@]1(O)C(=O)OCc2c1cc1n(c2=O)Cc2c-1nc1cc(F)c(C)c3c1c2[C@@H](NC(=O)OCc1ccc(O[C@@H]2O[C@H](C(=O)O)[C@@H](O)[C@H](O)[C@H]2O)c(CNC(=O)CCNC(=O)[C@H](CNC(=O)CCOCCOCCOCCOCCOCCOCCOCCOCCOCCOCCOCCOC)NC(=O)CCCCC(=O)N2Cc4ccccc4C#Cc4ccccc42)c1)CC3 [Compound 107, DBCO β-Glucuronide-PEG12-Exatecan]	–	–	–	–	–	–	–	–	–	–	–	–	–	most of the (107) and (108) in the reaction mixture had disappeared
CN[C@H](C(=O)N[C@H](C(=O)N(C)[C@H](/C=C(\C)C(=O)O)C(C)C)C(C)(C)C)C(C)(C)c1cccc(NC(=O)OCc2ccc(O[C@@H]3O[C@H](C(=O)O)[C@@H](O)[C@H](O)[C@H]3O)c(CNC(=O)CCNC(=O)[C@H](CNC(=O)CCOCCOCCOCCOCCOCCOCCOCCOCCOCCOCCOCCOC)NC(=O)CCCCC(=O)N3Cc4ccccc4C#Cc4ccccc43)c2)c1 [Compound 108]	–	–	–	–	–	–	–	–	–	–	–	–	–	most of the (107) and (108) in the reaction mixture had disappeared
